Assay results: ChEMBL document CHEMBL5465560, “Selectivity Literature for EUbOPEN Chemogenomic Library” (2024)

Tests used:
[1] = molecular target: T1, Ephrin type-B receptor 2 (Homo sapiens) (UniProt P29323); test: Selectivity interaction (KinomeScan (DiscoverX)) EUB0000229b EPHB2; details: at 10 µM
T1 sequence (whole entry): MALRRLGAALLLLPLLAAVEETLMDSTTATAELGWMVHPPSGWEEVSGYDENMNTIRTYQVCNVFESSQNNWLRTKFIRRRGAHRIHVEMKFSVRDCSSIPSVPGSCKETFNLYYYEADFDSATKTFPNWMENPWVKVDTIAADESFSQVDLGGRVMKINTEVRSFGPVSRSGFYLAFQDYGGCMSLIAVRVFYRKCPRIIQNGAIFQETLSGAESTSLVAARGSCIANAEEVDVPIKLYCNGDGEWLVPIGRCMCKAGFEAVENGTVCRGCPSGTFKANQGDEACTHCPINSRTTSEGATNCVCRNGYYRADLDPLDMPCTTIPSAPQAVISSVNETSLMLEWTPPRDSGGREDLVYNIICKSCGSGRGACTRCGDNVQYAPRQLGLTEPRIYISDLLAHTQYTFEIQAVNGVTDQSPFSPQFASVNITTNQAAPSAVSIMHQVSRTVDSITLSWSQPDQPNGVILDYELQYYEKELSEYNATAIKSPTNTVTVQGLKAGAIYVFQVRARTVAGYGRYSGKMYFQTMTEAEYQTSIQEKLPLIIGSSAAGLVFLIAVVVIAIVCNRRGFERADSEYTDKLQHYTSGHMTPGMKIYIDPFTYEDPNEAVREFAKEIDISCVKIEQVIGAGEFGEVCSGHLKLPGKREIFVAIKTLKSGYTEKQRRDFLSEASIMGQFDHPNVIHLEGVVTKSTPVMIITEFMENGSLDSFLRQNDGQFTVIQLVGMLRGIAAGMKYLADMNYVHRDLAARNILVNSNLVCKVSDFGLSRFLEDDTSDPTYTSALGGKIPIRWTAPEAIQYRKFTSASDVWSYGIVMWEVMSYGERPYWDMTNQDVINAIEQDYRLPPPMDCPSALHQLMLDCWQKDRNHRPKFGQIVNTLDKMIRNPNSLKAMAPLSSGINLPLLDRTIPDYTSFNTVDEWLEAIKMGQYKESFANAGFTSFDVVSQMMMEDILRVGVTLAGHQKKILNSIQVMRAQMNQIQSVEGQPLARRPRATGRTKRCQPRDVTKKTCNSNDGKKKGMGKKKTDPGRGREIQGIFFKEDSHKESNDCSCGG

[2] = molecular target: Mitogen-activated protein kinase 3 (Homo sapiens, UniProt P27361); test: Selectivity interaction (ProQinase) EUB0000171b MAPK3
Chain of Mitogen-activated protein kinase 3 (P27361 whole entry): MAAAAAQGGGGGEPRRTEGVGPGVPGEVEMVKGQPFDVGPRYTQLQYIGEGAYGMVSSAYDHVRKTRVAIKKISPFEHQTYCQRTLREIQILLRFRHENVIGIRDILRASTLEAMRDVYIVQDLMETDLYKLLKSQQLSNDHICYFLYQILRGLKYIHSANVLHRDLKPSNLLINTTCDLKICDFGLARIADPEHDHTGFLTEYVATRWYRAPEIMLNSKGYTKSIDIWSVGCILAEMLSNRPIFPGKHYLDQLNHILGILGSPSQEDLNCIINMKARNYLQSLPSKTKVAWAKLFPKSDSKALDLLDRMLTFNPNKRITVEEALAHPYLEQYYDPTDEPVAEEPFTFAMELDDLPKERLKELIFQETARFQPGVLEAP

[3] = molecular target: Serine/threonine-protein kinase PAK 2 (Homo sapiens) (UniProt Q13177); test: Selectivity interaction (Kinase panel (Z-LYTE Assay)) EUB0001632a PAK2; details: at 10 µM
Chain of Serine/threonine-protein kinase PAK 2 (Homo sapiens) (Q13177 whole entry): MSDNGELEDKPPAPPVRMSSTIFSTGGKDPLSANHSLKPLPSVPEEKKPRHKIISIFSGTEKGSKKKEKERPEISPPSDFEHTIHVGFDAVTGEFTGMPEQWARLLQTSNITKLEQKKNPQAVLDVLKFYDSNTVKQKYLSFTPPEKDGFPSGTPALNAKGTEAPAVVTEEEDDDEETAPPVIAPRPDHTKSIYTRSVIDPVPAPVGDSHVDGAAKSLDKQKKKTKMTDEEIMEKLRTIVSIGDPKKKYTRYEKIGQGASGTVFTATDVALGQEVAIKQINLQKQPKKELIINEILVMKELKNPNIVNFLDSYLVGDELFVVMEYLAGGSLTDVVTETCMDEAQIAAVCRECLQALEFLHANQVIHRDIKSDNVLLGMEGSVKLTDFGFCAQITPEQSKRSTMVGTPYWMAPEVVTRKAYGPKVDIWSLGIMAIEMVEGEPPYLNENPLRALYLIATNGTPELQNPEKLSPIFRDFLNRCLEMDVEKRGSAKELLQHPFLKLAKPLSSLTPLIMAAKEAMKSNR

[4] = molecular target: Lethal(3)malignant brain tumor-like protein 1 (Homo sapiens) (UniProt Q9Y468); test: Selectivity interaction (Transferase panel (protein, RNA, and DNA methyltransferases. and EP300 (acetyltransferase))) EUB0000270b L3MBTL; details: at 1 µM
[5] = molecular target: STE20-like serine/threonine-protein kinase (Homo sapiens, UniProt Q9H2G2); test: Selectivity interaction (ActivX KiNativ screen (kinase selectivity in THP-1 cell lysates)) EUB0000639a SLK; type: subcellular; details: lysate, at 0.01 µM
[6] = tested on: Epidermal growth factor receptor (Homo sapiens), P00533 [G719S]; test: (§1) Selectivity interaction (KinomeScan (DiscoverX)) EUB0000607a EGFR; details: at 10 µM
[7] = tested on: Epidermal growth factor receptor (Homo sapiens), P00533 [L858R]; test: as §1; details: at 10 µM
Chain of Epidermal growth factor receptor (Homo sapiens), P00533 [L858R] (P00533 whole entry L858R): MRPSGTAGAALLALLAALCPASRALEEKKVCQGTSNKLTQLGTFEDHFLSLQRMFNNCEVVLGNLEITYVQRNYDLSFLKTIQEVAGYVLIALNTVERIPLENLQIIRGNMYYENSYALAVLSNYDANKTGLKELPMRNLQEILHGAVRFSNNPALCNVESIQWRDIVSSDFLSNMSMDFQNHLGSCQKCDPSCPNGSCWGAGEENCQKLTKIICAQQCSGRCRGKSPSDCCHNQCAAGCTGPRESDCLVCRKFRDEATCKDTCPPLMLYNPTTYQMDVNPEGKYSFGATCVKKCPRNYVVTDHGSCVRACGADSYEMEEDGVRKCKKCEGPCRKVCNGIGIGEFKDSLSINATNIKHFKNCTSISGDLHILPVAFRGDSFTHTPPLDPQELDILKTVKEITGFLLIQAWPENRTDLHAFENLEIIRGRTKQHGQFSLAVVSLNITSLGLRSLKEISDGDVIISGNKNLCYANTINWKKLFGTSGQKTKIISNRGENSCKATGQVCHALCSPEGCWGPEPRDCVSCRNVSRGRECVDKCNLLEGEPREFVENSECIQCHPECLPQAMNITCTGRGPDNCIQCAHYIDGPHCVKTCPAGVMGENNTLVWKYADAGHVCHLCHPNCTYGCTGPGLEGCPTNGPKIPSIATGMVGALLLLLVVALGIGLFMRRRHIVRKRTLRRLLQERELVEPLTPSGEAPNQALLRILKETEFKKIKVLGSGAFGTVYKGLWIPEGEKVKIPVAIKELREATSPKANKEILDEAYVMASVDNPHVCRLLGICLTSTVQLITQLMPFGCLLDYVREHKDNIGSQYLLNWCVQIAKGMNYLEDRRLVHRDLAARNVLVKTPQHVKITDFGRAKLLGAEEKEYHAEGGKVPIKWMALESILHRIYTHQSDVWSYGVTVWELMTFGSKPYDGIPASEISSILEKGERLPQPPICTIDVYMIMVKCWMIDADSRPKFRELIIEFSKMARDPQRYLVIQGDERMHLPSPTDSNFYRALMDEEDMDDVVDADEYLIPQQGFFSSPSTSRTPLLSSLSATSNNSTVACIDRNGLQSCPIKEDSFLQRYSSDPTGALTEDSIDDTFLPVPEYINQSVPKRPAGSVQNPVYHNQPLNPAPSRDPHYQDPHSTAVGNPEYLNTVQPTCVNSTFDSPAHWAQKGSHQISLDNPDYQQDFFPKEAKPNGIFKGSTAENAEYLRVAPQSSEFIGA

[8] = tested on: Epidermal growth factor receptor (Homo sapiens), P00533 [L861Q]; test: as §1; details: at 10 µM
Chain of Epidermal growth factor receptor (Homo sapiens), P00533 [L861Q] (P00533 whole entry L861Q): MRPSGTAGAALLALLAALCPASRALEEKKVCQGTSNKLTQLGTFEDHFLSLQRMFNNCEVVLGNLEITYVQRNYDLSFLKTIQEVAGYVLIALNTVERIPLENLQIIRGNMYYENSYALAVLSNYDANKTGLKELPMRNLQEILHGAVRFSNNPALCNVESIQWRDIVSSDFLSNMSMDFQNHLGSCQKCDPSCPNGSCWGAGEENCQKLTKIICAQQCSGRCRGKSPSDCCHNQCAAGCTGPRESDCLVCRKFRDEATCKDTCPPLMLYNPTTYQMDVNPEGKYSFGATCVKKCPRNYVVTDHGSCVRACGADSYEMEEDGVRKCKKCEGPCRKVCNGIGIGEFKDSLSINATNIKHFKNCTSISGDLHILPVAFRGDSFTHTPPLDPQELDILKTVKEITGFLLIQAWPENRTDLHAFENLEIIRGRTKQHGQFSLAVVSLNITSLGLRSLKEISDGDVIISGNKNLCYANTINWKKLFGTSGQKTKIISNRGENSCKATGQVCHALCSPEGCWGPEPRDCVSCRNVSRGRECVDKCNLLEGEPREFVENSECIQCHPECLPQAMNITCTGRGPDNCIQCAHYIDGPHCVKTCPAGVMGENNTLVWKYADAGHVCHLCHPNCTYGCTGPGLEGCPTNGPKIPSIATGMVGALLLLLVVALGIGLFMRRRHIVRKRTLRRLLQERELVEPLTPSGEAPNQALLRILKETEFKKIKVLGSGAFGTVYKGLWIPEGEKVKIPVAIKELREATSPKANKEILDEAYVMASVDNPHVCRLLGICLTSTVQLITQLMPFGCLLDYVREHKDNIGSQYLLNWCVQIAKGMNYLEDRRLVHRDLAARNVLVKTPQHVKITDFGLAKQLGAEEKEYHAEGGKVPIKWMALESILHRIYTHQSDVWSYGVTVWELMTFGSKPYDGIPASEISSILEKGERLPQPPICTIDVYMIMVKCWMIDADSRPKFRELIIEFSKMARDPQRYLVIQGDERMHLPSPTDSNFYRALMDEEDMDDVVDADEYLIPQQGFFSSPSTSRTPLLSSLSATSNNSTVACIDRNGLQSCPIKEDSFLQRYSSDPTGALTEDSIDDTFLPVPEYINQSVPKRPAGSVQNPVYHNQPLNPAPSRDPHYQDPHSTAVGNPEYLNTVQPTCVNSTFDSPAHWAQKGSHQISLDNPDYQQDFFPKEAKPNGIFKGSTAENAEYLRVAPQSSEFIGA

[9] = tested on: Epidermal growth factor receptor (Homo sapiens), P00533 [T790M]; test: as §1; details: at 10 µM
Chain of Epidermal growth factor receptor (Homo sapiens), P00533 [T790M] (P00533 whole entry T790M): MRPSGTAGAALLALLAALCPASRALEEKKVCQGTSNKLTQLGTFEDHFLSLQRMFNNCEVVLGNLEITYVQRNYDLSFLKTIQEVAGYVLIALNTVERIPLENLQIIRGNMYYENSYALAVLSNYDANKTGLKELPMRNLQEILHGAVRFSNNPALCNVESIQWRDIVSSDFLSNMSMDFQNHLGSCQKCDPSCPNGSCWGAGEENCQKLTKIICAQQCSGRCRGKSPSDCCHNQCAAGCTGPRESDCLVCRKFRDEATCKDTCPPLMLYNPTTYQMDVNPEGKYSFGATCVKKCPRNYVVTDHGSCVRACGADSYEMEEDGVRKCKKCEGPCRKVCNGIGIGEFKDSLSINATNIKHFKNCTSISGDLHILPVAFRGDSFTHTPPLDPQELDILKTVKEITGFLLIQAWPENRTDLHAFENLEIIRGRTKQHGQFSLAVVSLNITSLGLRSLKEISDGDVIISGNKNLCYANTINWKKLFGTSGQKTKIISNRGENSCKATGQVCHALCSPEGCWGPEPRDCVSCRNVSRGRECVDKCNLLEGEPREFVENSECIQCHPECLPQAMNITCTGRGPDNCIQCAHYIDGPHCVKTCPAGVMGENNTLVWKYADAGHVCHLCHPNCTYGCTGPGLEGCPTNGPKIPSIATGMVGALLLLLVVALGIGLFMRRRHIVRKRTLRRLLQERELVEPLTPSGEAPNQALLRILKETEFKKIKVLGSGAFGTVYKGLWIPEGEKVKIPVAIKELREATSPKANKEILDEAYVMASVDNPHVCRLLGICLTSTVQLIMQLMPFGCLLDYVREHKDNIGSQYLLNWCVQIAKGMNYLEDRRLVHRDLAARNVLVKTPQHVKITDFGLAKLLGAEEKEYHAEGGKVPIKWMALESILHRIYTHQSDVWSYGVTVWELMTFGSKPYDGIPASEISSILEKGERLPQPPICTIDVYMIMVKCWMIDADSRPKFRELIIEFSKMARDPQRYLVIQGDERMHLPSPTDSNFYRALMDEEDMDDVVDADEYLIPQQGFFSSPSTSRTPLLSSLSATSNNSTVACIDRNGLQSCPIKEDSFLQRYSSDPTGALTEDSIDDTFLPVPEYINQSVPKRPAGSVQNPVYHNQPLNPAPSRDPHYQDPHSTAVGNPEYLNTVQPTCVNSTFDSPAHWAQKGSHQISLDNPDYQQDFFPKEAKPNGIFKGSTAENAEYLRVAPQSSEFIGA

[10] = tested on: Epidermal growth factor receptor (Homo sapiens), P00533 [UNDEFINED MUTATION]; test: as §1; details: at 10 µM
[11] = molecular target: NT-3 growth factor receptor (Homo sapiens, UniProt Q16288); test: Selectivity interaction (KinomeScan (DiscoverX)) EUB0000695a NTRK3; details: at 100 nM
[12] = molecular target: T2, Serine/threonine-protein kinase ULK3 (Homo sapiens) (UniProt Q6PHR2); test: Selectivity interaction (KinomeScan (DiscoverX)) EUB0000595a ULK3; details: at 10 µM
T2 sequence (whole entry): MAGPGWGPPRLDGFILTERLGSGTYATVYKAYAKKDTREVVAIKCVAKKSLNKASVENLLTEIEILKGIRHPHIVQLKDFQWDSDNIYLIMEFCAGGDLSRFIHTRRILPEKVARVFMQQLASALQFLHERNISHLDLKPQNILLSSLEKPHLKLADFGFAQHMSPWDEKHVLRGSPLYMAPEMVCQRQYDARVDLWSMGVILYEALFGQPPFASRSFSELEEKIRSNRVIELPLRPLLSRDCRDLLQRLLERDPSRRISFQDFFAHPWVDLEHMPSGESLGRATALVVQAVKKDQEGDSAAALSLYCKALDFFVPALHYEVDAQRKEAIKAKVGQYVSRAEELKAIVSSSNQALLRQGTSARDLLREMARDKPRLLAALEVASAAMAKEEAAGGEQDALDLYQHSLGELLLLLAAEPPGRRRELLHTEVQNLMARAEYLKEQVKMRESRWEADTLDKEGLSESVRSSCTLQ

[13] = molecular target: Serine/threonine-protein kinase 32A (Homo sapiens) (UniProt Q8WU08); test: Selectivity interaction (KinomeScan (DiscoverX)) EUB0000618a STK32A; details: at 10 µM
Chain of Serine/threonine-protein kinase 32A (Homo sapiens) (Q8WU08 whole entry): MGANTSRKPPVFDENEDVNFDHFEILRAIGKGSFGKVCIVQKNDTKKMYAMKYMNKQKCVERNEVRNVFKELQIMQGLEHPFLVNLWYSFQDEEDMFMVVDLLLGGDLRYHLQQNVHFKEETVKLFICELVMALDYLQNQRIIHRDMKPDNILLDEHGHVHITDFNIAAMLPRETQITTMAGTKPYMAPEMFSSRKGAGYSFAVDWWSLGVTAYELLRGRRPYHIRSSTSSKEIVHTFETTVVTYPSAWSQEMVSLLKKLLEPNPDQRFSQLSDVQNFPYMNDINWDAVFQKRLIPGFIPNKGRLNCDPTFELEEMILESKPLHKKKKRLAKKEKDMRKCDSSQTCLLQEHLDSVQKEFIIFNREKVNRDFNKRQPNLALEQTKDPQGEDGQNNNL

[14] = molecular target: T3, Serine/threonine-protein kinase Sgk3 (Homo sapiens) (UniProt Q96BR1); test: Selectivity interaction (Ambit KINOMEscan and KiNATiv profiling in Jurkat cells) EUB0000090b SGK3; type: cell-based; details: at 1 µM
T3 sequence (whole entry): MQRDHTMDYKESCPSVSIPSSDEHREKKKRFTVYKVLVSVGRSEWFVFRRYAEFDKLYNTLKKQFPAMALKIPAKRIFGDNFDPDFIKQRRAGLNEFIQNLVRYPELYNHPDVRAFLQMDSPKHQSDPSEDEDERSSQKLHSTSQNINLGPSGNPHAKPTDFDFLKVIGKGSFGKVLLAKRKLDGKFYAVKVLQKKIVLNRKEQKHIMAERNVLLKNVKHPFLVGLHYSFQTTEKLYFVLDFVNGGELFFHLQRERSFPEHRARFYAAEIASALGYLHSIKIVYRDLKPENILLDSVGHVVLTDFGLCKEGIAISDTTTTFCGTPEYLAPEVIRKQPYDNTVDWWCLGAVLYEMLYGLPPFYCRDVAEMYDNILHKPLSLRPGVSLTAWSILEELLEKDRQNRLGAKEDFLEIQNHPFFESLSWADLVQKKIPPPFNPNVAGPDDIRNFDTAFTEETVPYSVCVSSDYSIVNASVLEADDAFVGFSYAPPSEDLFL

COc1cc(N(C)c2ccnc3ccc(C(F)(F)F)cc23)cc(OC)c1OC
% binding [1]: 93%

C=CC(=O)Nc1cccc(C(=O)Nc2ccc(Nc3cc(-c4[nH]c(SC)nc4C)ccn3)cc2)c1
% of control ([2]; at 1 µM): 101% | % of control ([2]; at 5 µM): 99%

Cn1cc(-n2cnc3c(NCc4nc5cc(Cl)c(Cl)cc5[nH]4)nc(N4CCOCC4)nc32)cn1
% of control [3]: -1.61%

Cc1cc(CN)cc(C)c1-c1ncn(C)c1-c1cncn1C
% activity [4]: > 90%

CC[C@@H]1[C@H](F)C(=O)N[C@@H]1COc1nccc2cc(C(N)=O)c(OC)cc12 [ZIMLOVISERTIB]
% of inhibition [5]: -0.7%

CNC(=O)Nc1ccc(-c2nc(N3CC4CCC(C3)O4)c3cnn(C4CCC5(CC4)OCCO5)c3n2)cc1
% of control [6]: 69% | % of control [7]: 53% | % of control [8]: 64% | % of control [9]: 68% | % of control [10]: 38%

Cc1cc(F)c(C(=O)Nc2cccc(-c3nncn3C(C)C)n2)cc1-n1cnc(C2CC2)c1
% of control [11]: 86%

COCC(=O)NC/C=C/c1ccc2ncnc(Nc3ccc(Oc4ccc(C)nc4)c(C)c3)c2c1 [CP-724714]
% of control [12]: 68%

O[C@H]1CC[C@H](Nc2ncc3nc(Nc4c(F)cc(F)cc4F)n([C@H]4CCOC4)c3n2)CC1
% of control [13]: 62%

CN(C)C/C=C/C(=O)Nc1ccc(C(=O)N2CCCC(Nc3ncc(Cl)c(-c4c[nH]c5ccccc45)n3)C2)cc1 (stereo not given)
% of control [14]: 84%
